Data taken from ChEMBL document CHEMBL2375284, “Novel hybrids of natural isochroman-4-one bearing N-substituted isopropanolamine as potential antihypertensive candidates” (Bioorg Med Chem, 2013).

What was measured:
[1] = tested on: Rattus norvegicus; experiment: Antihypertensive activity in rat spontaneous hypertensive model assessed as mean arterial blood pressure at 80 mg/kg, po measured at 8 hrs by tail-cuff method (reference value: 155.8 +/- 11.54 mmHg); type: functional, Artery
[2] = tested on: Rattus norvegicus; experiment: Antihypertensive activity in rat spontaneous hypertensive model assessed as mean arterial blood pressure at 80 mg/kg, po measured at 6 hrs by tail-cuff method (reference value: 155.8 +/- 7.97 mmHg); type: functional, Artery
[3] = tested on: Rattus norvegicus; experiment: Antihypertensive activity in rat spontaneous hypertensive model assessed as mean arterial blood pressure at 80 mg/kg, po measured at 4 hrs by tail-cuff method (reference value: 154.4 +/- 20.1 mmHg); type: functional, Artery
[4] = tested on: Rattus norvegicus; experiment: Antihypertensive activity in rat spontaneous hypertensive model assessed as mean arterial blood pressure at 80 mg/kg, po measured at 2 hrs by tail-cuff method (reference value: 157.41 +/- 9.62 mmHg); type: functional, Artery
[5] = tested on: Rattus norvegicus; experiment: Antihypertensive activity in rat spontaneous hypertensive model assessed as mean arterial blood pressure at 80 mg/kg, po measured at 1 hr by tail-cuff method (reference value: 158.9 +/- 13.65 mmHg); type: functional, Artery
[6] = tested on: Rattus norvegicus; experiment: Antihypertensive activity in rat spontaneous hypertensive model assessed as mean arterial blood pressure at 80 mg/kg, po measured at 0.5 hrs by tail-cuff method (reference value: 156.2 +/- 7.21 mmHg); type: functional, Artery
[7] = tested on: Rattus norvegicus; experiment: Antihypertensive activity in rat spontaneous hypertensive model assessed as diastolic arterial blood pressure at 80 mg/kg, po measured at 8 hrs by tail-cuff method (reference value: 135.3 +/- 8.21 mmHg); type: functional, Artery
[8] = tested on: Rattus norvegicus; experiment: Antihypertensive activity in rat spontaneous hypertensive model assessed as diastolic arterial blood pressure at 80 mg/kg, po measured at 6 hrs by tail-cuff method (reference value: 141.2 +/- 7.34 mmHg); type: functional, Artery
[9] = tested on: Rattus norvegicus; experiment: Antihypertensive activity in rat spontaneous hypertensive model assessed as diastolic arterial blood pressure at 80 mg/kg, po measured at 4 hrs by tail-cuff method (reference value: 141.4 +/- 7.11 mmHg); type: functional, Artery
[10] = tested on: Rattus norvegicus; experiment: Antihypertensive activity in rat spontaneous hypertensive model assessed as diastolic arterial blood pressure at 80 mg/kg, po measured at 2 hrs by tail-cuff method (reference value: 142.9 +/- 18.07 mmHg); type: functional, Artery
[11] = tested on: Rattus norvegicus; experiment: Antihypertensive activity in rat spontaneous hypertensive model assessed as diastolic arterial blood pressure at 80 mg/kg, po measured at 1 hr by tail-cuff method (reference value: 146.2 +/- 13.19 mmHg); type: functional, Artery
[12] = tested on: Rattus norvegicus; experiment: Antihypertensive activity in rat spontaneous hypertensive model assessed as diastolic arterial blood pressure at 80 mg/kg, po measured at 0.5 hrs by tail-cuff method (reference value: 138.7 +/- 9.2 mmHg); type: functional, Artery
[13] = tested on: Rattus norvegicus; experiment: Antihypertensive activity in rat spontaneous hypertensive model assessed as systolic arterial blood pressure at 80 mg/kg, po measured at 8 hrs by tail-cuff method (reference value: 174 +/- 12.1 mmHg); type: functional, Artery
[14] = tested on: Rattus norvegicus; experiment: Antihypertensive activity in rat spontaneous hypertensive model assessed as systolic arterial blood pressure at 80 mg/kg, po measured at 6 hrs by tail-cuff method (reference value: 176.7 +/- 15.21 mmHg); type: functional, Artery
[15] = tested on: Rattus norvegicus; experiment: Antihypertensive activity in rat spontaneous hypertensive model assessed as systolic arterial blood pressure at 80 mg/kg, po measured at 4 hrs by tail-cuff method (reference value: 172.9 +/- 10.21 mmHg); type: functional, Artery
[16] = tested on: Rattus norvegicus; experiment: Antihypertensive activity in rat spontaneous hypertensive model assessed as systolic arterial blood pressure at 80 mg/kg, po measured at 2 hrs by tail-cuff method (reference value: 172.6 +/- 17.3 mmHg); type: functional, Artery
[17] = tested on: Rattus norvegicus; experiment: Antihypertensive activity in rat spontaneous hypertensive model assessed as systolic arterial blood pressure at 80 mg/kg, po measured at 1 hr by tail-cuff method (reference value: 181.2 +/- 16.37 mmHg); type: functional, Artery
[18] = tested on: Rattus norvegicus; experiment: Antihypertensive activity in rat spontaneous hypertensive model assessed as systolic arterial blood pressure at 80 mg/kg, po measured at 0.5 hrs by tail-cuff method (reference value: 178.5 +/- 10.13 mmHg); type: functional, Artery
[19] = tested on: Rattus norvegicus; experiment: Toxicity in rat spontaneous hypertensive model assessed as heart rate at 80 mg/kg, po measured at 8 hrs by tail-cuff method (reference value: 397.2 +/- 24.87 bpm); type: organism-based; set-up: dose 80 mg/kg, route oral; conditions: in vivo
[20] = tested on: Rattus norvegicus; experiment: Toxicity in rat spontaneous hypertensive model assessed as heart rate at 80 mg/kg, po measured at 6 hrs by tail-cuff method (reference value: 405.1 +/- 24 bpm); type: organism-based; set-up: dose 80 mg/kg, route oral; conditions: in vivo
[21] = tested on: Rattus norvegicus; experiment: Toxicity in rat spontaneous hypertensive model assessed as heart rate at 80 mg/kg, po measured at 4 hrs by tail-cuff method (reference value: 403.1 +/- 15.92 bpm); type: organism-based; set-up: dose 80 mg/kg, route oral; conditions: in vivo
[22] = tested on: Rattus norvegicus; experiment: Toxicity in rat spontaneous hypertensive model assessed as heart rate at 80 mg/kg, po measured at 2 hrs by tail-cuff method (reference value: 399.5 +/- 19.68 bpm); type: organism-based; set-up: dose 80 mg/kg, route oral; conditions: in vivo
[23] = tested on: Rattus norvegicus; experiment: Toxicity in rat spontaneous hypertensive model assessed as heart rate at 80 mg/kg, po measured at 1 hr by tail-cuff method (reference value: 403.9 +/- 12.41 bpm); type: organism-based; set-up: dose 80 mg/kg, route oral; conditions: in vivo
[24] = tested on: Rattus norvegicus; experiment: Toxicity in rat spontaneous hypertensive model assessed as heart rate at 80 mg/kg, po measured at 0.5 hrs by tail-cuff method (reference value: 406.5 +/- 13.15 bpm); type: organism-based; set-up: dose 80 mg/kg, route oral; conditions: in vivo
[25] = tested on: Rattus norvegicus; experiment: Antihypertensive activity in rat spontaneous hypertensive model assessed as mean arterial blood pressure at 20 mg/kg, po measured at 8 hrs by tail-cuff method (reference value: 155.8 +/- 11.54 mmHg); type: functional, Artery
[26] = tested on: Rattus norvegicus; experiment: Antihypertensive activity in rat spontaneous hypertensive model assessed as mean arterial blood pressure at 20 mg/kg, po measured at 6 hrs by tail-cuff method (reference value: 155.8 +/- 7.97 mmHg); type: functional, Artery
[27] = tested on: Rattus norvegicus; experiment: Antihypertensive activity in rat spontaneous hypertensive model assessed as mean arterial blood pressure at 20 mg/kg, po measured at 4 hrs by tail-cuff method (reference value: 154.4 +/- 20.1 mmHg); type: functional, Artery
[28] = tested on: Rattus norvegicus; experiment: Antihypertensive activity in rat spontaneous hypertensive model assessed as mean arterial blood pressure at 20 mg/kg, po measured at 2 hrs by tail-cuff method (reference value: 157.41 +/- 9.62 mmHg); type: functional, Artery
[29] = tested on: Rattus norvegicus; experiment: Antihypertensive activity in rat spontaneous hypertensive model assessed as mean arterial blood pressure at 20 mg/kg, po measured at 1 hr by tail-cuff method (reference value: 158.9 +/- 13.65 mmHg); type: functional, Artery
[30] = tested on: Rattus norvegicus; experiment: Antihypertensive activity in rat spontaneous hypertensive model assessed as mean arterial blood pressure at 20 mg/kg, po measured at 0.5 hrs by tail-cuff method (reference value: 156.2 +/- 7.21 mmHg); type: functional, Artery
[31] = tested on: Rattus norvegicus; experiment: Antihypertensive activity in rat spontaneous hypertensive model assessed as diastolic arterial blood pressure at 20 mg/kg, po measured at 8 hrs by tail-cuff method (reference value: 135.3 +/- 8.21 mmHg); type: functional, Artery
[32] = tested on: Rattus norvegicus; experiment: Antihypertensive activity in rat spontaneous hypertensive model assessed as diastolic arterial blood pressure at 20 mg/kg, po measured at 6 hrs by tail-cuff method (reference value: 141.2 +/- 7.34 mmHg); type: functional, Artery
[33] = tested on: Rattus norvegicus; experiment: Antihypertensive activity in rat spontaneous hypertensive model assessed as diastolic arterial blood pressure at 20 mg/kg, po measured at 4 hrs by tail-cuff method (reference value: 141.4 +/- 7.11 mmHg); type: functional, Artery
[34] = tested on: Rattus norvegicus; experiment: Antihypertensive activity in rat spontaneous hypertensive model assessed as diastolic arterial blood pressure at 20 mg/kg, po measured at 2 hrs by tail-cuff method (reference value: 142.9 +/- 18.07 mmHg); type: functional, Artery
[35] = tested on: Rattus norvegicus; experiment: Antihypertensive activity in rat spontaneous hypertensive model assessed as diastolic arterial blood pressure at 20 mg/kg, po measured at 1 hr by tail-cuff method (reference value: 146.2 +/- 13.19 mmHg); type: functional, Artery
[36] = tested on: Rattus norvegicus; experiment: Antihypertensive activity in rat spontaneous hypertensive model assessed as diastolic arterial blood pressure at 20 mg/kg, po measured at 0.5 hrs by tail-cuff method (reference value: 138.7 +/- 9.2 mmHg); type: functional, Artery
[37] = tested on: Rattus norvegicus; experiment: Antihypertensive activity in rat spontaneous hypertensive model assessed as systolic arterial blood pressure at 20 mg/kg, po measured at 8 hrs by tail-cuff method (reference value: 174 +/- 12.1 mmHg); type: functional, Artery
[38] = tested on: Rattus norvegicus; experiment: Antihypertensive activity in rat spontaneous hypertensive model assessed as systolic arterial blood pressure at 20 mg/kg, po measured at 6 hrs by tail-cuff method (reference value: 176.7 +/- 15.21 mmHg); type: functional, Artery
[39] = tested on: Rattus norvegicus; experiment: Antihypertensive activity in rat spontaneous hypertensive model assessed as systolic arterial blood pressure at 20 mg/kg, po measured at 4 hrs by tail-cuff method (reference value: 172.9 +/- 10.21 mmHg); type: functional, Artery
[40] = tested on: Rattus norvegicus; experiment: Antihypertensive activity in rat spontaneous hypertensive model assessed as systolic arterial blood pressure at 20 mg/kg, po measured at 2 hrs by tail-cuff method (reference value: 172.6 +/- 17.3 mmHg); type: functional, Artery
[41] = tested on: Rattus norvegicus; experiment: Antihypertensive activity in rat spontaneous hypertensive model assessed as systolic arterial blood pressure at 20 mg/kg, po measured at 1 hr by tail-cuff method (reference value: 181.2 +/- 16.37 mmHg); type: functional, Artery
[42] = tested on: Rattus norvegicus; experiment: Antihypertensive activity in rat spontaneous hypertensive model assessed as systolic arterial blood pressure at 20 mg/kg, po measured at 0.5 hrs by tail-cuff method (reference value: 178.5 +/- 10.13 mmHg); type: functional, Artery
[43] = tested on: Rattus norvegicus; experiment: Toxicity in rat spontaneous hypertensive model assessed as heart rate at 20 mg/kg, po measured at 8 hrs by tail-cuff method (reference value: 397.2 +/- 24.87 bpm); type: organism-based; set-up: dose 20 mg/kg, route oral; conditions: in vivo
[44] = tested on: Rattus norvegicus; experiment: Toxicity in rat spontaneous hypertensive model assessed as heart rate at 20 mg/kg, po measured at 6 hrs by tail-cuff method (reference value: 405.1 +/- 24 bpm); type: organism-based; set-up: dose 20 mg/kg, route oral; conditions: in vivo
[45] = tested on: Rattus norvegicus; experiment: Toxicity in rat spontaneous hypertensive model assessed as heart rate at 20 mg/kg, po measured at 4 hrs by tail-cuff method (reference value: 403.1 +/- 15.92 bpm); type: organism-based; set-up: dose 20 mg/kg, route oral; conditions: in vivo
[46] = tested on: Rattus norvegicus; experiment: Toxicity in rat spontaneous hypertensive model assessed as heart rate at 20 mg/kg, po measured at 2 hrs by tail-cuff method (reference value: 399.5 +/- 19.68 bpm); type: organism-based; set-up: dose 20 mg/kg, route oral; conditions: in vivo
[47] = tested on: Rattus norvegicus; experiment: Toxicity in rat spontaneous hypertensive model assessed as heart rate at 20 mg/kg, po measured at 1 hr by tail-cuff method (reference value: 403.9 +/- 12.41 bpm); type: organism-based; set-up: dose 20 mg/kg, route oral; conditions: in vivo
[48] = tested on: Rattus norvegicus; experiment: Toxicity in rat spontaneous hypertensive model assessed as heart rate at 20 mg/kg, po measured at 0.5 hrs by tail-cuff method (reference value: 406.5 +/- 13.15 bpm); type: organism-based; set-up: dose 20 mg/kg, route oral; conditions: in vivo

COc1ccc2c(c1OCC(O)CNC(C)C)COC(C)C2=O (stereo not drawn)
Activity [1]: 137.4 mmHg
Activity [2]: 138.9 mmHg
Activity [3]: 135.4 mmHg
Activity [4]: 129.3 mmHg
Activity [5]: 133.1 mmHg
Activity [6]: 144.8 mmHg
Activity [7]: 122.9 mmHg
Activity [8]: 124.4 mmHg
Activity [9]: 117.7 mmHg
Activity [10]: 109.5 mmHg
Activity [11]: 114.6 mmHg
Activity [12]: 129.6 mmHg
Activity [13]: 166.3 mmHg
Activity [14]: 168 mmHg
Activity [15]: 170.9 mmHg
Activity [16]: 169 mmHg
Activity [17]: 170.1 mmHg
Activity [18]: 175.3 mmHg
Activity [19]: 372.8 bpm
Activity [20]: 374.7 bpm
Activity [21]: 373.2 bpm
Activity [22]: 368.8 bpm
Activity [23]: 375 bpm
Activity [24]: 383.4 bpm

CC(C)NCC(O)COc1cccc2ccccc12 (stereo not drawn) [PROPRANOLOL]
Activity [25]: 132.6 mmHg
Activity [26]: 120.9 mmHg
Activity [27]: 108.3 mmHg
Activity [28]: 116.8 mmHg
Activity [29]: 122.6 mmHg
Activity [30]: 145 mmHg
Activity [31]: 116.9 mmHg
Activity [32]: 100.3 mmHg
Activity [33]: 88.3 mmHg
Activity [34]: 94.1 mmHg
Activity [35]: 105.5 mmHg
Activity [36]: 127.2 mmHg
Activity [37]: 163.9 mmHg
Activity [38]: 161 mmHg
Activity [39]: 158.4 mmHg
Activity [40]: 160.6 mmHg
Activity [41]: 156.8 mmHg
Activity [42]: 168.7 mmHg
Activity [43]: 362.3 bpm
Activity [44]: 360.1 bpm
Activity [45]: 349.6 bpm
Activity [46]: 350.6 bpm
Activity [47]: 339.9 bpm
Activity [48]: 340 bpm
